Measurements published in publication PMC2990587, “Central nervous system penetration and enhancement of temozolomide activity in childhood medulloblastoma models by poly(ADP-ribose) polymerase inhibitor AG-014699” (British Journal of Cancer, 2010).
Entries after “also recorded” stand apart in the source; their conditions may differ.

What was measured:
D425Med xenografts = assay: Tumour growth inhibition in vivo, D425Med xenografts; set-up: species or system mouse
Source text: All of the in vivo experiments were reviewed and approved by the relevant institutional animal welfare committees, and performed according to national law. Female athymic nude mice (CD1 nu/nu; Charles River, Margate, UK) used for anti-tumour studies were maintained and handled in isolators under specific pathogen-free conditions. […], […] and […] (1 × 10^7 exponentially growing cells per mouse, harvested and implanted in growth media) xenografts were established by sub-cutaneous implantation into CD-1 nude mice. […] Treatment was initiated when sufficient number of mice had established tumours to allow randomisation into treatment groups: day 17 for […], day 26 for […] and day 32 for […]. […] For drug combinations, AG-014699 was administered immediately after administering temozolomide. […] Tumour growth delay (TGD) is defined as the time to RTV4 in drug-treated mice compared with the time to RTV4 in control (vehicle alone) mice. Median tumour volume is shown, rather than the mean, as this is generally accepted as the most statistically reliable representation of the average growth rate of tumours in a small group of mice, if a normal distribution of tumour volumes cannot be assumed. Tumour growth delay was calculated as: median time to RTV4 in treated group-median time to RTV4 in control group.

[1] = Toxicity (body weight loss) in tumour-bearing mice; assay type: in vivo, mouse
Method: CD-1 nude mice bearing palpable, established subcutaneous D425Med, D283Med and D384Med xenografts were treated with normal saline (control animals), temozolomide (68 mg kg^−1 per os (p.o.)) or AG-014699 (1 mg kg^−1 i.p.) alone or in combination, daily for 5 days (five mice per group). For drug combinations, AG-014699 was administered immediately after administering temozolomide. Tumour volumes, determined from two-dimensional calliper measurements and the equation a^2 × b/2 (where a is the […] of the tumour), were monitored for the experimental period (up to 100 days), and are presented for each group of mice as median relative tumour volume (RTV) values. Relative tumour volume 1 is the tumour volume on the initial day of treatment (day 0), and RTV4 is the tumour volume four times that on the initial day of treatment. Tumour growth delay (TGD) is defined as the time to RTV4 in drug-treated mice compared with the time to RTV4 in control (vehicle alone) mice. Median tumour volume is shown, rather than the mean, as this is generally accepted as the most statistically reliable representation of the average growth rate of tumours in a small group of mice, if a normal distribution of tumour volumes cannot be assumed. Tumour growth delay was calculated as: median time to RTV4 in treated group−median time to RTV4 in control group. Percentage enhancement was calculated as 100 × (TGD TMZ+AG-014699/TGD TMZ alone)−100 ([Calabrese et al, 2004]).

CNCc1ccc(-c2[nH]c3cc(F)cc4c3c2CCNC4=O)cc1 [AG-014699]
Median nadir body weight (% starting weight) (D425Med xenografts; D425Med-bearing mice, daily x5, TMZ 68 mg kg−1 p.o., AG-014699 1 mg kg−1 i.p.): 98 % starting weight | Median time to RTV4 (D425Med xenografts; D425Med, daily x5, TMZ 68 mg kg−1 p.o., AG-014699 1 mg kg−1 i.p.): 15.5 days | Complete regressions (D425Med xenografts; D425Med, mice with regression/group, sustained for 100 days): 0/5 | Toxicity of AG-014699 alone ([1]; 1 mg kg−1 i.p. daily five times): not toxic; also recorded: did not cause any marked toxicity | Body weight loss ([1]; daily x5, TMZ 68 mg kg−1 p.o., AG-014699 1 mg kg−1 i.p.): 1±1%
